Test results: PMC11943016, “TBG096 Ameliorates Memory Deficiency in AD Mouse Model via Promoting Neurogenesis and Regulation of Hsc70/HK2/PKM2/LAMP2A Signaling Pathway” (International Journal of Molecular Sciences, 2025)

How the values were obtained:
gut microbiota = assay: Gut microbiota analysis in HFD-induced AD mice; assay type: in vivo; details: Met 140 mg/kg
Text: (§1) In experiments with the HFD-induced AD mouse model, a total of 60 Institute of Cancer Research (ICR) male mice aged 4 weeks from Zhejiang Academy of Medical Sciences (Hangzhou, China) were used for animal experiments (permit number: ZJU20230121). The animals were provided free access to a chow diet and water. […] The HFD and normal diet were alternated every two days to maintain freshness. Weekly measurements were taken for water intake, food intake, and body weight. In the eighteenth week, the mice underwent Y-maze and NOR tests. The Morris water maze test was conducted during the nineteenth week. After confirming the successful establishment of the AD model characterized by cognitive impairment, oral administration of treatments commenced. […] Each group had 10 mice.

HFD-induced AD mice [1] = assay: Immunofluorescence staining of brain tissue of HFD-induced AD mice; assay type: in vivo
Text: as §1
At the end of animal experiments, three mice in each group were taken for heart perfusion with cold PBS and 4% paraformaldehyde. After that, the brains of mice were fixed with 4% paraformaldehyde for 24 h and gradually dehydrated with 15% and 30% sucrose solutions for 48 h, respectively. The fixed and embedded brain sample was placed in a cryostat and cut into 20 µm thick slices with a cryostat (Thermo Fisher, Waltham, MA, USA), and brain slices in the hippocampus and cortex were collected. Finally, the brain slices were placed in antifreeze (glycerol/ethylene/PBS = 3:3:4) and kept in a refrigerator at −30 °C until immunostaining. The brain slices were fixed on a glass slide and hydrated with PBS for 5 min. Then, blocking buffer was added to the brain slices and incubated at room temperature for 1 h. Brain slices were washed twice with PBS and incubated with anti-NeuN, anti-BrdU, anti-Iba1, anti-GFAP, anti-INOS, anti-APP, or anti-p-Tau at 4 °C for 24 h, respectively. Subsequently, the brain slices were incubated with secondary antibody (goat anti-rabbit IgG H&L (Alexa Fluor® 488) or rabbit anti-mouse IgG (Cy3 conjugate)) at room temperature for 2 h after washing with PBS three times. Finally, a cover glass was used to lightly cover the slices stained with DAPI. […] Biomarker proteins in the cerebral cortex and hippocampus were digitized by Image J software (National Institutes of Health, Bethesda, MD, USA).

HFD-induced AD mice [2] = assay: Behavioral tests (Y-maze, NOR, MWM) in HFD-induced AD mice; assay type: in vivo
Text: as §1
The Y-maze test is used to evaluate working memory, and the process was referenced in another report. In brief, the Y-maze consists of three black plastic arms (A, B, and C) with the same length (30 cm), width (10 cm), height (15 cm), and 120° relative to adjacent arms. Each mouse is placed facing the wall of arm A and allowed to explore the maze freely for 5 min. The behavior of mice is recorded with a video recorder, and the data are stored in ANY-MAZE software version 6.35 (Stoelting, Chicago, IL, USA). The total number of entries made by the mice into each arm—considered as either whole or half-body entries—is recorded. An alternation is defined as a mouse moving through all three arms without returning to the initial arm on the third visit. Alternation: number of alternations/(number of arm entries − 2) × 100%.
The NOR test is utilized to assess the working memory capabilities of mice. The NOR apparatus consists of an open, black plastic box, two identical objects, and one novel object. The activity of the mice within the open field is captured and recorded using a video recorder, with data subsequently stored in ANY-MAZE software. The test is conducted over a span of two days, incorporating habituation, training, and testing stages. During the habituation phase, the mice are placed in the box devoid of any objects, allowing them to explore freely for a duration of five min. Following a 24 h interval, the NOR test is administered, which consists of both the training and testing phases. In the training phase, each mouse is positioned in the central area of the box, where two identical objects are placed equidistant from the mouse. Each training session lasts for five minutes. After a one-hour break, one of the identical objects is replaced with a new, distinct object, and the exploration duration for each mouse is recorded. Exploration is defined by the time a mouse spends touching or sniffing an object. The exploration times during both the training and testing phases are documented via video recording, and the data are organized within ANY-MAZE software. The object recognition index was defined as follows: (time spent on the new object)/(time spent on the old object + time spent on the new object) × 100%. The data are calculated by ANY-MAZE software.
The MWM test is used to measure spatial memory and long-term memory. The whole MWM equipment includes a circular water tank (diameter 1.5 m, depth 50 cm) with warm water (22 ± 1 °C) 35 cm deep, a platform (diameter 14 cm, immersed 1 cm in water), a camera, and a computer for data analysis. The MWM test is conducted over five 5 days: 4 days for training and 1 day for testing. The pool is divided into four quadrants, and at least three quadrants are tested at a time. In the training stage, the mouse is placed on the wall of one of the four quadrants and allowed to swim and find the platform hidden underwater within 120 s. If the mouse cannot find the platform, the experimenter will guide it and let it stay on the platform for 10 s. The experiment lasts for 4 days. On the fifth day of the test phase, the platform is removed, and each mouse is placed in a similar starting position and allowed to move freely for 90 s. […]

PC12 cells [3] = assay: EdU cell proliferation in PC12 cells (inhibitor experiment); assay type: cell-based; details: VER155008 3 µM, NH4Cl 250 µM
Protocol: In the inhibitor experiment of EdU cell proliferation activity, PC12 cells were seeded into each well of a 24-well plate as above for 24 h. Then, the medium in each well was replaced with 500 μL of serum-free […] containing VER155008 (inhibitor of Hsc70, 3 µM), or NH4Cl (inhibitor of lysosome, 250 µM) for 30 min according to the literature, and 500 μL of serum-free DMEM containing different samples was added and cultured for 24 h, respectively. After that, PC12 cells were treated with EdU for 2 h according to the operation steps of the BeyoClick™ EdU-488 cell proliferation detection kit (#C0071S, Beyotime Biotechnology, Shanghai, China). After cell labeling, the supernatant was removed. Then, PC12 cells were fixed, washed, and blocked, and the click reaction solution was added at room temperature for 30 min. After that, DAPI staining was performed for 10 min. Finally, PC12 cells were detected by fluorescence microscope (Olympus IX53, Tokyo, Japan).

[4] = system: Hsc70, LAMP2A, APP, PKM2, and HK2 proteins; assay: Western blot of CMA proteins in PC12 cells (inhibitor experiment); assay type: cell-based; details: TBG096 1 µM, VER155008 3 µM, 4 h, vs control
Protocol: (§2) In the inhibitor experiment of NGF-mimic activity, approximately 5 × 10^4 PC12 cells were seeded into each well of a 24-well plate and incubated for 24 h. After that, the medium in each well was replaced with 500 μL of serum-free DMEM or the serum-free DMEM containing VER155008, the inhibitor of Hsc70 protein, incubated in a CO2 incubator for 30 min. Subsequently, 500 μL of serum-free DMEM containing different samples was added and cultured, respectively. The PC12 cells with neurite outgrowth were recorded after 48 h. For the Western blot analysis, the experiment included five groups, namely the control (C) group, the NGF (40 ng/mL) group, the TBG096 (1 µM) group, the VER155008 (3 µM) group, and the VER155008 (3 µM) + TBG096 (1 µM) group. Afterwards, approximately 2 × 10^6 cells per dish were seeded into ten 6 cm Petri dishes with 5 mL of DMEM medium and incubated for 24 h. After giving different treatments with samples, the cells continued to culture for 4 h. Protein extraction was conducted to prepare for the subsequent Western blot analysis.
Approximately 50 mg of cerebral cortex from brain tissues was homogenized in RIPA lysis buffer containing 1% protease inhibitor and 1% phosphatase inhibitor. Then, the sample was centrifuged at 12,000 rpm at 4 °C for 10 min, and the supernatant was transferred to a new tube. Protein concentrations were determined using the BCA kit, and 30 µg of protein from each sample was denatured by heating in water at 100 °C for 10 min. Subsequently, approximately 30 µg of protein from each sample was loaded into each well. After conducting gel electrophoresis at 80 V for 15 min and then at 120 V for 60 min, the proteins were transferred to the polyvinylidene fluoride (PVDF) membrane for 90 min. Then, the PVDF membrane was blocked with 5% skimmed milk at room temperature for 60 min. The membrane was incubated with a diluted primary antibody at 4 °C overnight. After washing the membrane three times with TBST buffer (1× TBS buffer containing 0.05% (v/v) tween 20), it was incubated with the secondary antibody for 1 h at room temperature. Finally, the strip was developed using chemiluminescence ECL reagent, and the blot density was quantified with ImageJ (National Institutes of Health, Bethesda, MD, USA).

PC12 cells [5] = assay: NGF-mimic activity: neurite outgrowth in PC12 cells; assay type: cell-based; details: 0.3, 1, and 3 µM, 48 h
Protocol: The neurogenic activity of samples was evaluated according to the methods described in our previous study. Briefly, approximately 5 × 10^4 cells were seeded in each well of a 24-well microplate and were cultured under a humidified atmosphere with 5% CO2 at 37 °C for 24 h. Then, the medium in each well was replaced with 1 mL of serum-free DMEM containing 40 ng/mL NGF as a positive control, 0.5% DMSO as a negative control, and the test sample after 24 h, respectively. About 100–200 cells of each well were counted from a randomly selected area and repeated thrice after 48 h. A cell-bearing neurite outgrowth longer than the diameter of the cell body was identified as a positive cell. The activity was presented as the percentage of positive cells in the selected area.
as §2

PC12 cells [6] = assay: MTT assay, cytotoxicity in PC12 cells; assay type: cell-based; details: 10 µM
Protocol: PC12 cells were firstly inoculated into a 24-well plate and cultured for 24 h. Following this, samples at different doses were added and cultured for 24 h. Subsequently, the 0.5 mL serum-free medium containing MTT (0.2 mg/mL) of each well was used to replace the original medium and incubated for 2 h. After removing the solution, the purple crystal was dissolved in 200 μL of DMSO, and the absorbance was measured at 570 nm. The cell survival rate for each group was calculated based on the control group.

[7] = cited from earlier work

## CN(C)C(=N)N=C(N)N [Met, Metformin, reference compound]
Gut microbiota; TBG096 20 mg/kg
  abundance of Firmicutes (decreased by HFD) and Bacteroidota (increased by HFD): reversed
Gut microbiota; TBG096 5 and 20 mg/kg
  abundance of Ligilactobacillus: improved
HFD-induced AD mice [1]; immunofluorescence
  APP and phosphorylation Tau protein in the hippocampus: reduction
HFD-induced AD mice [1]; vs HFD-only group
  number of mature neurons (NeuN) in the cerebral cortex: increased numbers of mature neurons
HFD-induced AD mice [2]; TBG096 0.1, 5, 20 mg/kg, Met 140 mg/kg, 54 days
  number of arm entries, Y-maze test: No significant differences
HFD-induced AD mice [2]; fourth day, Met 140 mg/kg and all doses of TBG096
  escape latency, MWM training phase: markedly reduced
HFD-induced AD mice [2]; vs HFD-only group
  number of platform crossings, MWM test phase: increased significantly

## Cl.N [NH4Cl]
PC12 cells [3]
  effect of inhibitor on the EdU cell proliferation activity of TBG096: reverse the activity

## N#Cc1ccc(COC[C@H]2O[C@@H](n3c(NCc4ccc(Cl)c(Cl)c4)nc4c(N)ncnc43)[C@H](O)[C@@H]2O)cc1 [VER155008, reference compound]
PC12 cells [3]
  effect of inhibitor on the EdU cell proliferation activity of TBG096: reverse the activity
[4]
  APP protein expression: significantly increased
  Hsc70 protein level: significantly decreased
  LAMP2A protein level: significantly increased
  PKM2 protein expression: significantly increased

## O=C(SCCCCCCCCSCCCC(F)(F)F)c1cccc(O)c1O [compound 4]
PC12 cells [5]
  percentage of PC12 cells exhibiting neurite growth: superior activity
PC12 cells [6]
  toxicity in PC12 cells (MTT): some level of toxicity

## NGF: Nerve growth factor, the first recognized neurotrophic factor; positive control in PC12 assay
[7]
  BBB penetration: cannot penetrate the BBB
